Data published in US20080026996A1, “Selective Vpac2 Receptor Reptide Agonists” (ELI LILLY AND COMPANY, priority 2004, published 2008).
Where no end group is shown, it is not given here. The star is where a group is joined. Hexanoyl = CCCCCC(=O)*

Key:
human VPAC1 = target: T1, human VPAC1 (Homo sapiens, UniProt P32241); test: Filter binding assay, membranes of cells transiently transfected with human VPAC1, 125I-labeled VIP tracer (Table 2); parameters: expressed in transfected cells; settings: read-out: Human VPAC1 Receptor Binding
T1 sequence (P32241 31-457): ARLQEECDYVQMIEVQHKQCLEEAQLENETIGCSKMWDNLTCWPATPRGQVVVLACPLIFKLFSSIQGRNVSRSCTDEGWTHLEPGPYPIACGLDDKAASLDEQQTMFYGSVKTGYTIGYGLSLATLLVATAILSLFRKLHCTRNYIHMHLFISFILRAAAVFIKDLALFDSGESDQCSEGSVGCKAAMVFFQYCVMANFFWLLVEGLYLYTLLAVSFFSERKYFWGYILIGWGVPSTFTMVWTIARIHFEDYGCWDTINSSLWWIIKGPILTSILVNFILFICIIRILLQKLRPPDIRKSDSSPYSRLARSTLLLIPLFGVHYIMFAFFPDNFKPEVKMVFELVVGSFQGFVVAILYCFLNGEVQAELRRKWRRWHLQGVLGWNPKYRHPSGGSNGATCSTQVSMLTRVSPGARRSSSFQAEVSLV
Method in brief: (§1)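 Membranes 2.5 μg/well; tracer ~40000 cpm; buffer 25 mM HEPES pH 7.4, 0.5% protease-free BSA; 1 h incubation, shaking. Glass-fibre filtration (0.5% polyethyleneamine presoak, 0.2% BSA block), 3× HEPES wash, dry 1 h at 60° C, scintillation count.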

rat VPAC1 receptor [1] = target: T2, rat VPAC1 receptor (Rattus norvegicus, UniProt P30083); test: DiscoveRx in vitro potency, CHO-PO cells transiently transfected with rat VPAC 1 receptor DNA; type: cell-based; parameters: expressed in transfected cells; host or cells: CHO-PO, transient
T2 sequence (P30083 31-459): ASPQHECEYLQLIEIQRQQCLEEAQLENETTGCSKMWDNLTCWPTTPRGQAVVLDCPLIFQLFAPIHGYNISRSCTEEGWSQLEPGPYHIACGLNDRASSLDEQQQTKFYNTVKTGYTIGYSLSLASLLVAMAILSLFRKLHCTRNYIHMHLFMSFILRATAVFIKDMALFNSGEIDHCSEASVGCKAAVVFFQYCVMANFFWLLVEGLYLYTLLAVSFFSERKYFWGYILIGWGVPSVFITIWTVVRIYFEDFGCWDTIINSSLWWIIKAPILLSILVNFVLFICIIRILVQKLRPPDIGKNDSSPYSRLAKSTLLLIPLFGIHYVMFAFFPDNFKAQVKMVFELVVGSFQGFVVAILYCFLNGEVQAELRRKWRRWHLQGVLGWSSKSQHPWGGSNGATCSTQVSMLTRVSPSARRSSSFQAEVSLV
Procedure: Also, the cells are washed twice. […] The stimuli are present for 30 minutes. Then, the assay buffer is gently removed.

human VPAC2 [2] = target: T3, human VPAC2 (Homo sapiens, UniProt P41587); test: Alpha screen cAMP in vitro potency, human VPAC2 receptor; type: cell-based; settings: cAMP generation; single result from two analyses performed in a single run; read-out: Human VPAC2 Receptor: Alpha Screen EC50
T3 construct: expressed in transfected cells
T3 sequence (P41587 24-438): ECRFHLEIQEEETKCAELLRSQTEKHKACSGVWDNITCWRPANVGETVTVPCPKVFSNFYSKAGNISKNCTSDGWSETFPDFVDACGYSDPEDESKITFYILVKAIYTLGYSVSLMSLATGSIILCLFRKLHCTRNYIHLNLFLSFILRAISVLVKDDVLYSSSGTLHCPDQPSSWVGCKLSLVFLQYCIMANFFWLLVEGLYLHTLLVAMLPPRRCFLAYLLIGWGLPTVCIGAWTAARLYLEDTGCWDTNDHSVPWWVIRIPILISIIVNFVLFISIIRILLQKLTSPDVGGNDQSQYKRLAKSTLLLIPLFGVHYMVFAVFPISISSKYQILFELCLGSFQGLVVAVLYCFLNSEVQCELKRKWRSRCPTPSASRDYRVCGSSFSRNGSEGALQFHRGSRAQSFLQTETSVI
Method in brief: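 Cells were detached with enzyme-free dissociation buffer, washed into stimulation buffer and used at 50,000 cells per data point. Stimuli and AlphaScreen acceptor beads were added for 60 minutes, then lysis buffer with donor beads for 60 to 120 minutes; the AlphaScreen signal reports intracellular cAMP.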

human VPAC2 [3] = target: T3, human VPAC2; test: DiscoveRx cAMP in vitro potency, CHO-S cell line stably expressing human VPAC2 receptor; type: cell-based; settings: cAMP generation; mean of two independent runs
Procedure: Also, the cells are washed twice. The cells are incubated in assay buffer plus IBMX for 15 minutes at room temperature. […] The stimuli are present for 30 minutes. Then, the assay buffer is gently removed. […] At day 3, the assay described above for the VPAC2 receptor cell line is performed.

[4] = rat, in vivo, iv, 10 ug/kg
Procedure: (§2) An IVGTT with glucose is given immediately after T=0 to 6 animals per condition. Samples are taken at 0, 2, 4, 6, and 10 minutes after injection.
(§3) For cell handling, Plate 50,000 cells/well and keep in culture over night. Wash cell twice in PBS and add 50 μl/well stimulation medium consisting of PBS+1.2 MgCl2, 1.3 CaCl2, 2 glucose and 0.5 IBMX. Incubate 15 minutes and add 50 μl/well of the plasma samples (see layout below). Incubate 30 minutes, remove the supernatant and proceed as normal with the DiscoveRx assay. Prepare plates in duplicate. Protease and peptidase inhibitor are present in all plasma samples.

[5] = Rat serum stability studies (remaining active peptide by DiscoveRx cAMP on CHO-VPAC2 cells); type: in vitro ADME
Method in brief: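 EC50 from a DiscoveRx cAMP read-out on CHO-VPAC2 cells indexes how much peptide stays active after 18 h in rat serum at 37° C without aprotinin, against an aprotinin-protected 4° C aliquot.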

in vivo = settings: Wistar, rat, iv, 10 ug/kg
Procedure: as §2, §3

Normal Wistar rats = test: Intravenous glucose tolerance test (IVGTT); type: in vivo, rat; settings: IVGTT, insulin
Procedure: Intravenous glucose tolerance test (IVGTT): Normal Wistar rats are fasted overnight and are anesthetized prior to the experiment. A blood sampling catheter is inserted into the rats. The compound is given in the jugular vein. Blood samples are taken from the carotid artery. A blood sample is drawn immediately prior to the injection of glucose along with the compound. After the initial blood sample, glucose mixed with compound is injected intravenously (i.v.). A glucose challenge of 0.5 g/kg body weight is given, injecting a total of 1.5 mL vehicle with glucose and agonist per kg body weight. The peptide concentration vary to produce the desired dose in μg/kg. Blood samples are drawn at 2, 4, 6 and 10 minutes after giving glucose. The control group of animals receives the same vehicle along with glucose, but with no compound added. In some instances, a 30 minute post-glucose blood sample is drawn. Aprotinin is added to the blood sample (250 kIU/ml blood). The serum is then analyzed for glucose and insulin using standard methodologies.
The assay uses a formulated and calibrated peptide stock in PBS. Normally, this stock is a prediluted 100 μM stock. However, a more concentrated stock with approximately 1 mg agonist per mL is used. The specific concentration is always known. Variability in the maximal response is mostly due to variability in the vehicle dose.

human VPAC2 [6] = target: T3, human VPAC2; test: Filter binding assay, membranes of stable VPAC2 cell line, 125I-labeled VIP tracer (Table 2); settings: read-out: Human VPAC2 Receptor Binding
Method in brief: as §1

rat VPAC2 receptor [7] = target: T4, rat VPAC2 receptor (rat, UniProt P35000 23-437); test: IC50 on rat VPAC1 over IC50 on rat VPAC2
T4 construct: whole, on cells; transfected CHO-PO cells in DiscoveRx
T4 sequence (looked up): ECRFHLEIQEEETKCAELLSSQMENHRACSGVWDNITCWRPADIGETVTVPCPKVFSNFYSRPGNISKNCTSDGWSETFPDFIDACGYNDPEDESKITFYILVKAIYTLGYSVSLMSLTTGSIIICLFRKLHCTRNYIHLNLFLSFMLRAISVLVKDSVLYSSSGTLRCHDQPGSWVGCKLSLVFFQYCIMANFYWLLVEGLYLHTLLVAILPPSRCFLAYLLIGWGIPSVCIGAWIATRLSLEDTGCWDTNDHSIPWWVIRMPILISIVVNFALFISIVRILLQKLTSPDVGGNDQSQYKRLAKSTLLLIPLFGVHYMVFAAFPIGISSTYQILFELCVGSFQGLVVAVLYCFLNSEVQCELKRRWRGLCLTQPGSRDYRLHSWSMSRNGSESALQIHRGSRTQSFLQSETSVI
Source text: Each assay is done in duplicate and performed on two different membrane preparations.
TABLE 3 Binding data are expressed as the IC₅₀ values of tracer inhibition. A different reference compound is used as the tracer for the VPAC1 receptor and for the VPAC2 receptor. The last column represents the ratio between the IC₅₀ values on VPAC1 and VPAC2 receptor and is, thus, an index of selectivity for a receptor subtype. […] The values are given with the standard error.

rat PAC1 receptor = target: T5, rat PAC1 receptor (rat, UniProt P32215 20-523); test: cell-based or functional assay
T5 sequence (looked up): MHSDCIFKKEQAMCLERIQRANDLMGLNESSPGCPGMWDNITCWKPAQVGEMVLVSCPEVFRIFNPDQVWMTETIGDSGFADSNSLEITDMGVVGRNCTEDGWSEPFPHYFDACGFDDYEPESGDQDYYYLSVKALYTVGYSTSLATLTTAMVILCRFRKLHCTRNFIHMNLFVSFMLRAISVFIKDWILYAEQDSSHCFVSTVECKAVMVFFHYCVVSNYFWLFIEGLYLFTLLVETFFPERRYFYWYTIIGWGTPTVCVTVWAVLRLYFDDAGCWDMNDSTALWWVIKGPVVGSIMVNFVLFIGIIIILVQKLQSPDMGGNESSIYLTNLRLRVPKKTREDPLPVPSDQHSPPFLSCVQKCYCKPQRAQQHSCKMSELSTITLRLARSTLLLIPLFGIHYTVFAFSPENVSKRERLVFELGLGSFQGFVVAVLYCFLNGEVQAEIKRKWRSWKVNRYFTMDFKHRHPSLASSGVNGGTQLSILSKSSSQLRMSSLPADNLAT

rat VPAC1 receptor [8] = target: T6, rat VPAC1 receptor (rat, UniProt P30083 31-459); test: cell-based or functional assay
T6 sequence (looked up): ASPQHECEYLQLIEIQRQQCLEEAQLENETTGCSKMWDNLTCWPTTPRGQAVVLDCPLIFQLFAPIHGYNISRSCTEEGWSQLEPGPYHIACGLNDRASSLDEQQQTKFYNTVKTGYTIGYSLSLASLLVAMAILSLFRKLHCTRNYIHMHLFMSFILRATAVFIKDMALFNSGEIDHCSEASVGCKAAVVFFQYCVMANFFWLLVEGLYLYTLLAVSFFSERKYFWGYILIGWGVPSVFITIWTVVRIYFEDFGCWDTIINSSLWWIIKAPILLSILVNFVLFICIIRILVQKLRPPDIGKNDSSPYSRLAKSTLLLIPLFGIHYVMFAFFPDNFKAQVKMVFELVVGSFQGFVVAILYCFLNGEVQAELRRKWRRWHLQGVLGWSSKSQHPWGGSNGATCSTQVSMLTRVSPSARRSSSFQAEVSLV

human VPAC2 receptor = target: T7, human VPAC2 receptor (human, UniProt P41587 24-438); test: cell-based or functional assay
T7 sequence (looked up): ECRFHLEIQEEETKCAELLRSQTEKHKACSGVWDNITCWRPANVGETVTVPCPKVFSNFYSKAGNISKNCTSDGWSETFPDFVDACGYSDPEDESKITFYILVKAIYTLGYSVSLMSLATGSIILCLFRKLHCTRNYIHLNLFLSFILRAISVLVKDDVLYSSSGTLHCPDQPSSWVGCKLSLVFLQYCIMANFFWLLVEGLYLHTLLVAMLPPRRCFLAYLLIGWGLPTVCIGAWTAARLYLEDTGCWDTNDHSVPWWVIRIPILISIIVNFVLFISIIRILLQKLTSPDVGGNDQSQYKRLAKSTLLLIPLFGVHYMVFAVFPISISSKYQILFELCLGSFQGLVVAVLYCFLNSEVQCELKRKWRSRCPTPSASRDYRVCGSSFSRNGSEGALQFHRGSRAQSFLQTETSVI

rat VPAC2 receptor [9] = target: T4, rat VPAC2 receptor; test: cell-based or functional assay
rat VPAC1 receptor [10] = target: T6, rat VPAC1 receptor; test: cell-based or functional assay; remark: listed apart in the source

HSDAVFTDNYTRLLAKVAAKKYLQSIKNKRYGGPSSGAPPPS [Agonist P89]
IC50 (human VPAC1): 162 nM | EC50 (rat VPAC1 receptor [1]): 0.02 nM | EC50 (human VPAC2 [2]): 1.23 nM | EC50 (human VPAC2 [3]): 0.7 nM | Exposure (10 μg/kg, Vdist in μg/(nM * kg)) [4]: 0.64 µg/nM/kg | Rat Serum Stability (Estimated purity in % after 72 hours) [5]: <0.4% | AUC(0-t) (in vivo): 0.523 nM·h | Cmax (in vivo): 5.45 nM | half-life (in vivo): 1.32 min | % increase AUC: Dose = 0.5 μg/kg (Normal Wistar rats; 0.5 μg/kg): 110% | % increase AUC: Dose = 10 μg/kg (Normal Wistar rats; 10 μg/kg): 280% | IC50 (human VPAC2 [6]): 0.15 nM

B1: P119 (peptide)
peptide: Hexanoyl-HSDAVFTDNYTRLLAKLALQKYLQSIKNKRYGGPSSGAPPPS
notes: also called VPAC2-P119
VPAC1/VPAC2 (ratio of IC50 values) (rat VPAC2 receptor [7]): 47 | adenylate cyclase potency ratio compared to PACAP-27 (rat PAC1 receptor): > 200 fold | EC50 cAMP, DiscoveRx (rat VPAC1 receptor [8]): 0.07 nM | EC50 cAMP, Alpha Screen (human VPAC2 receptor): 0.42 nM | EC50 cAMP, DiscoveRx (human VPAC2 receptor): 0.34 nM | VPAC1/VPAC2 (EC50 ratio) (rat VPAC2 receptor [9]): 32 | cAMP max (rat VPAC2 receptor [9]): 133 | cAMP max (rat VPAC1 receptor [10]): 207
